Experimental data reported in ChEMBL document CHEMBL4819090, “Discovery of a new series of PI3K-δ inhibitors from Virtual Screening” (Bioorg Med Chem Lett, 2021).

Assays:
[1] = target: Phosphatidylinositol 4,5-bisphosphate 3-kinase catalytic subunit gamma isoform (Homo sapiens, UniProt P48736); assay: Inhibition of PI3Kgamma (unknown origin) by HTRF assay
[2] = target: Phosphatidylinositol 4,5-bisphosphate 3-kinase catalytic subunit alpha isoform (Homo sapiens, UniProt P42336); assay: Inhibition of PI3Kalpha (unknown origin) by HTRF assay
Phosphatidylinositol 4,5-bisphosphate 3-kinase catalytic subunit alpha isoform, sequence (P42336 whole entry, canonical isoform): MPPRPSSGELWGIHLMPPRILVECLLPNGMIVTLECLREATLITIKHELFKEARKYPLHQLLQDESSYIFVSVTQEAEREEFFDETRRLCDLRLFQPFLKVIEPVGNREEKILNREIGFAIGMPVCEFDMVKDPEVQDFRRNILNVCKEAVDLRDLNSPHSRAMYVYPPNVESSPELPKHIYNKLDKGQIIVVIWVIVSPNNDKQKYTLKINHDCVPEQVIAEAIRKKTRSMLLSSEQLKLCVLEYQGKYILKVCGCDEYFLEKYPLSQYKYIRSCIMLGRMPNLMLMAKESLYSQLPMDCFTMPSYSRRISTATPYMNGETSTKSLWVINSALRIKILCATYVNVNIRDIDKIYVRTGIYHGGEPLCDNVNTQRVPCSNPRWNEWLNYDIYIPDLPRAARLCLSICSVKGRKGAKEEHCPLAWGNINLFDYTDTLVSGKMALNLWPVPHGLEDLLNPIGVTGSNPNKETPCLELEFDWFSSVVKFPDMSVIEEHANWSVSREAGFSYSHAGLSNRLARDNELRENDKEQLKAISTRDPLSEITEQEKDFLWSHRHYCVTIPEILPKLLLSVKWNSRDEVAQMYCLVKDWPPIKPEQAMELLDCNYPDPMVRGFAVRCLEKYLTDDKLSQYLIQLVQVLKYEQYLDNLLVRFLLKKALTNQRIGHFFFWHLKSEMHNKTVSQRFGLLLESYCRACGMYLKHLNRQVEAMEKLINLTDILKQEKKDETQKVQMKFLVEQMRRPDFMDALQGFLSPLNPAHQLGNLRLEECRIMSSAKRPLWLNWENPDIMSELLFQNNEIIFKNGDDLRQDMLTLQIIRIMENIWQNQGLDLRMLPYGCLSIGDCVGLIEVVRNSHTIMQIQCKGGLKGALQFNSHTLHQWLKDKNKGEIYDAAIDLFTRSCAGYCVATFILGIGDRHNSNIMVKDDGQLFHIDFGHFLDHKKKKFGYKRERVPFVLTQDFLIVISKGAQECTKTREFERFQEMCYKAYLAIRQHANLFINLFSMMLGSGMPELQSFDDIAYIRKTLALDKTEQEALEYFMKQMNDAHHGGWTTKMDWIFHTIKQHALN

[3] = target: Phosphatidylinositol 4,5-bisphosphate 3-kinase catalytic subunit beta isoform (Homo sapiens, UniProt P42338); assay: Inhibition of PI3Kbeta (unknown origin) by HTRF assay
Phosphatidylinositol 4,5-bisphosphate 3-kinase catalytic subunit beta isoform, sequence (P42338 whole entry, canonical isoform): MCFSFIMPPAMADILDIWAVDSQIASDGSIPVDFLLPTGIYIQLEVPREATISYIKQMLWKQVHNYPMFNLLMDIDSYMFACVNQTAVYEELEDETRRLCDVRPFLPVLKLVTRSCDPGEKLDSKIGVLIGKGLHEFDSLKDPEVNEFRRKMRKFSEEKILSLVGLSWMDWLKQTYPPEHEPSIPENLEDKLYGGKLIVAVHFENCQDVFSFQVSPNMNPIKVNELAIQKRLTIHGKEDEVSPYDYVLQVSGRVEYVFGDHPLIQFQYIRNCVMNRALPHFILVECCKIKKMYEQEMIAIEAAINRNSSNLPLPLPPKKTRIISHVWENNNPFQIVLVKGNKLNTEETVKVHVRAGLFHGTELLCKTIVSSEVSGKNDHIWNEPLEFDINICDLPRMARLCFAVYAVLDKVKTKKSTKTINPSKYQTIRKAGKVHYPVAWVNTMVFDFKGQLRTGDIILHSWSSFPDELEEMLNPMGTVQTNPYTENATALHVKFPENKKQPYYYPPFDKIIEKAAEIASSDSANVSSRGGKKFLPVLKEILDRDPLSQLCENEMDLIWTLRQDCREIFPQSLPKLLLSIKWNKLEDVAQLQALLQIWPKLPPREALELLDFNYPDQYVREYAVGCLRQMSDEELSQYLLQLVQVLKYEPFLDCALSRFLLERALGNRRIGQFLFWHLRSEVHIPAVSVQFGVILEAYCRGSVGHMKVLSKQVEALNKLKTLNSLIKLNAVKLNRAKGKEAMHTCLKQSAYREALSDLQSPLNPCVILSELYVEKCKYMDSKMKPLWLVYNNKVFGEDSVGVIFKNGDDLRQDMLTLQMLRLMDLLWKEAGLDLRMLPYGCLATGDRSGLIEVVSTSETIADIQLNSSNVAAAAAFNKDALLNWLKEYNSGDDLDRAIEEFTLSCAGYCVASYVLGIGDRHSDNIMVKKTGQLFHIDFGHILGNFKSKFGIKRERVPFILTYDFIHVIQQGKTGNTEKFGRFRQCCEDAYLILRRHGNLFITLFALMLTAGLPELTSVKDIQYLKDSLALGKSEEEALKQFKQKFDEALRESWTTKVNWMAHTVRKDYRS

[4] = Clearance in Wistar Han rat at 2 mg/kg, iv; format: ADME, organism-based; conditions: in vivo
[5] = Volume of distribution in Wistar Han rat at 2 mg/kg, iv; format: ADME, organism-based; conditions: in vivo
[6] = Half life in Wistar Han rat at 2 mg/kg, iv; format: ADME, organism-based; conditions: in vivo

Phosphatidylinositol 4,5-bisphosphate 3-kinase catalytic subunit gamma isoform, sequence (P48736 whole entry, canonical isoform): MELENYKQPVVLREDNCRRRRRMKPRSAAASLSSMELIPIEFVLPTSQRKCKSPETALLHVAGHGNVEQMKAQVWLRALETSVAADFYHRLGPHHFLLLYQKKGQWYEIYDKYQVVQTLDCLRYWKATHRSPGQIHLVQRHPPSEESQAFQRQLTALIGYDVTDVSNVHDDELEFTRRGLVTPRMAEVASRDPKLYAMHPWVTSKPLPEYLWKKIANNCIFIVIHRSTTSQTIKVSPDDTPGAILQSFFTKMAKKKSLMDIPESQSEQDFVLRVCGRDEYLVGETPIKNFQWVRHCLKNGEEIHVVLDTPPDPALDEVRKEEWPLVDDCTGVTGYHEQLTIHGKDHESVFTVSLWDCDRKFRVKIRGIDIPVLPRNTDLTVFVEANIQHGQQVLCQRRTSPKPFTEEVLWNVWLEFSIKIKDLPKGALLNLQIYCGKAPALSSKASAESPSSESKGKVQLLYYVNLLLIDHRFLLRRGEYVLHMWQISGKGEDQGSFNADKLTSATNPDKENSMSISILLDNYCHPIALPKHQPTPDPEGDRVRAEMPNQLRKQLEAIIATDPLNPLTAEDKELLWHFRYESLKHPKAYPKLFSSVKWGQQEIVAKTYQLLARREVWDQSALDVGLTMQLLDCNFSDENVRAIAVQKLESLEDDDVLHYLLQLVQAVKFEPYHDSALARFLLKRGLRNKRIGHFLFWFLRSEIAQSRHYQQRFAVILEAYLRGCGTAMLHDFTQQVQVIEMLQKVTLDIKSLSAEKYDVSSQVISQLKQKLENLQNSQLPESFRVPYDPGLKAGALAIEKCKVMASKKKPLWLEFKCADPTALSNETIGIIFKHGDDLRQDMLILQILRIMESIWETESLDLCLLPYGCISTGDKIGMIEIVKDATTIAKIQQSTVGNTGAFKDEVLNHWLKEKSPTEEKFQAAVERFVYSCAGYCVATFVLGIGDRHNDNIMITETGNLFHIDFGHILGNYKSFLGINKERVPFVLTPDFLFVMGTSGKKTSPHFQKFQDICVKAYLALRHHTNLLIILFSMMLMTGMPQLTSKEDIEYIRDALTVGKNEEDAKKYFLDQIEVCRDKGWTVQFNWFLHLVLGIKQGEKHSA

Compound	IC50 [1] [µM]	other results
O=C1NCc2c1cc(O[C@@H]1CCN(C(=O)C3CC3)C1)cc2-c1cncc(O)c1	3.06	
O=C1NCc2c1cccc2-c1cc(O)cc(F)c1	> 10	
Cn1ncc2cc(-c3cc(OC4CN(C(=O)C5CC5)C4)cc4c3CNC4=O)cnc21	> 10	
O=C1NCc2c1cc(O[C@@H]1CCN(C(=O)C3CC3)C1)cc2-c1cc(O)cc(F)c1	1.8	
Cc1ncc(-c2cc(O[C@@H]3CCN(C(=O)C4CC4)C3)cc3c2CNC3=O)cc1NS(C)(=O)=O	3.01	
O=C1NCc2c1cc(NCCCc1ccccc1)cc2-c1cc(O)cc(F)c1	2.02	
O=C1NCc2c1cc(-c1cccc(F)c1)cc2-c1cc(O)cc(F)c1	> 10	
O=C1NCc2c1cc(NCCCc1ccccc1)cc2-c1cccc(O)c1	4.33	
O=C1NCc2c1cc(OC1CN(C(=O)C3CC3)C1)cc2-c1cnc(Cl)c(OC(F)F)c1	> 10	
COc1ccc(-c2cc(O[C@@H]3CCN(C(=O)C4CC4)C3)cc3c2CNC3=O)cn1	4.74	
O=C1NCc2c1cc(NCCCN1CCOCC1)cc2-c1cccc(O)c1	> 50	IC50 [2]: 25 µM; IC50 [3]: 5.15 µM
CNc1ncc(-c2cc(OC3CN(C(=O)C4C[C@H]4C)C3)cc3c2CNC3=O)cc1C(F)(F)F (stereo partly drawn)	> 10	
O=C1NCc2c1cc(OC1CN(C(=O)C3CC3)C1)cc2-c1ccc(OC(F)F)nc1	> 10	clearance [4]: 6.3 mL/min/kg; Vd [5]: 1.4 L/kg; half-life [6]: 3.7 h
Nc1ncc(-c2cc(OC3CN(C(=O)C4CC4)C3)cc3c2CNC3=O)cc1C(F)(F)F	> 10	
C[C@@H]1CN(Cc2nnc(-c3cc4c(c(-c5cc(O)cc(F)c5)c3)CNC4=O)o2)C[C@H](C)O1	7.39	
O=C1NCc2c1cc(O[C@@H]1CCN(C(=O)C3CC(F)(F)C3)C1)cc2-c1cc(O)cc(F)c1	1.35	
O=C1NCc2c1cc(O[C@@H]1CCN(C(=O)C3CC3)C1)cc2-c1cnc(F)c(O)c1	1.09	
O=C1NCc2c1cc(O[C@@H]1CCN(C(=O)C3CCOCC3)C1)cc2-c1cc(O)cc(F)c1	3.13	
